Where two headings read alike, the source gives them in different places.
Columns and labels:
[1] = target: T1, glutathione-S-transferase (GST) tagged LXRbeta LBD (ligand binding domain) (Homo sapiens, UniProt P55055); assay: LanthaScreen TR-FRET Liver X Receptor Coactivator Assay, co-activator recruitment to LXRbeta LBD; type: biochemical
T1 construct: purchased Invitrogen pv4658.pps
T1 sequence (P55055 222-460 limits assumed): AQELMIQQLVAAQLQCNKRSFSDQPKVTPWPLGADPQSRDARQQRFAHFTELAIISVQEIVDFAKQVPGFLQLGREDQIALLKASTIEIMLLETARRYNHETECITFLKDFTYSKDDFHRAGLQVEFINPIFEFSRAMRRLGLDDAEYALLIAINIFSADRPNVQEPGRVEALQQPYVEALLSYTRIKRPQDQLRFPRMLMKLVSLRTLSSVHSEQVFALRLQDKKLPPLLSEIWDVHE
In short: (§1)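 LXRα- or LXRβ-LBD protein was added to test compounds, then fluorescein-labelled coactivator peptide plus Tb-anti-GST antibody; after room-temperature incubation, TR-FRET was read. Inflection point (IP) and Emax were expressed relative to the dual agonist reference T0901317.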

[2] = target: T2, glutathione-S-transferase (GST) tagged LXRalpha LBD (ligand binding domain) (Homo sapiens, UniProt Q13133); assay: LanthaScreen TR-FRET Liver X Receptor Coactivator Assay, co-activator recruitment to LXRalpha LBD; type: biochemical; conditions: for LXR alpha IP (nM) / EC50: potency (Inflection Point, IP), co-activator recruitment to LXRalpha LBD, in relation to T0901317; for EC50: read-out: LXR alpha IP; for LXR alpha IP (Inflection Point, potency): co-activator recruitment to GST-LXRalpha LBD, TR-FRET
T2 construct: purchased Invitrogen pv4655
T2 sequence (Q13133 209-447 limits assumed): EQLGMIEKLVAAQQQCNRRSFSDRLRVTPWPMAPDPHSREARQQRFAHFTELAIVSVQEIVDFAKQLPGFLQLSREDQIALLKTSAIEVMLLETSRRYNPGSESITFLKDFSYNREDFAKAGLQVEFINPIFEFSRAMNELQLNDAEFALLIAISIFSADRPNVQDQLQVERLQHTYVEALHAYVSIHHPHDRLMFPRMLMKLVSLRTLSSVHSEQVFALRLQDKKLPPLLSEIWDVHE
In short: as §1

[3] = efficacy at max dose, in relation to reference dual agonist T0901317, read-out: LXR beta Activity @ max dose (%)
[4] = potency (Inflection Point, IP), co-activator recruitment to LXRbeta LBD, in relation to T0901317, read-out: LXR beta IP
[5] = efficacy at max dose, in relation to reference dual agonist T0901317, read-out: LXR alpha Activity @ max dose (%)
[6] = LXR beta IP (nM), potency (Inflection Point, IP), co-activator recruitment to LXRbeta LBD, in relation to T0901317
[7] = read-out: LXR beta Activity @ max dose (%)
[8] = read-out: LXR alpha Activity @ max dose (%)
[9] = co-activator recruitment to GST-LXRbeta LBD, TR-FRET, read-out: LXR beta IP (Inflection Point, potency)
[10] = efficacy in relation to reference dual agonist T0901317, read-out: LXR beta Activity @ max dose
[11] = efficacy in relation to reference dual agonist T0901317, read-out: LXR alpha Activity @ max dose
[12] = efficacy at max dose, in relation to reference dual agonist T0901317

| Emax [1, 3] | EC50 [1, 4] | Emax [2, 5] | LXR alpha IP (nM) [2] | EC50 [2] | Compound | other results |
| --- | --- | --- | --- | --- | --- | --- |
| 69% | 494 nM | 1% | NO IP | – | COc1cccc([C@@](O)(C(=O)N2CCC(CC3CCN(c4ccc(C(=O)N(C)C)c(Cl)c4)CC3)CC2)C(F)(F)F)c1 (single isomer, unassigned) [Example 2-34] | – |
| 74% | 19 nM | 14% | NO IP | – | CN(C)C(=O)c1ccc(N2CCC(CC3CCN(C(=O)[C@](O)(c4cccc(O)c4)C(F)(F)F)CC3)CC2)cc1Cl [Example 2-87, 2-chloro-N,N-dimethyl-4-[4-({1-[(2R)-3,3,3-trifluoro-2-hydroxy-2-(3-hydroxyphenyl)propanoyl]piperidin-4-yl}methyl)piperidin-1-yl]benzamide] | – |
| 83% | 7 nM | 38% | – | 140 nM | CN(C)C(=O)c1ccc(N2CCC(CC3CCN(C(=O)[C@](O)(c4cccc(F)c4)C(F)(F)F)CC3)CC2)cc1Cl [Example 2-84, 2-chloro-N,N-dimethyl-4-[4-({1-[(2R)-3,3,3-trifluoro-2-(3-fluoro-phenyl)-2-hydroxy-propanoyl]piperidin-4-yl}methyl)piperidin-1-yl]benzamide] | – |
| 63% | 11 nM | 24% | – | 140 nM | CN(C)C(=O)c1ccc(N2CCC(CC3CCN(C(=O)C(O)(c4cccc(Cl)c4)C(F)(F)F)CC3)CC2)cc1Cl (stereo not drawn) [Example 2-17, 2-chloro-4-[4-({1-[2-(3-chlorophenyl)-3,3,3-trifluoro-2-hydroxy-propanoyl]piperidin-4-yl}methyl)piperidin-1-yl]-N,N-dimethyl-benzamide] | – |
| – | – | – | NO IP | – | CN(C)C(=O)c1ccc(N2CCC(CC3CCN(C(=O)[C@](O)(c4ccccc4)C(F)(F)C(F)(F)F)CC3)CC2)cc1Cl [Example 2-14, 2-chloro-N,N-dimethyl-4-[4-({1-[(2R)-3,3,4,4,4-pentafluoro-2-hydroxy-2-phenylbutanoyl]piperidin-4-yl}methyl)piperidin-1-yl]benzamide] | LXR beta Activity @ max dose (%) [1, 12]: 89%; LXR alpha Activity @ max dose (%) [2, 12]: 14% |
| 67% | 59 nM | 39% | – | 485 nM | O=C(c1ccc(N2CCC(CC3CCN(C(=O)[C@](O)(c4ccccc4)C(F)(F)F)CC3)CC2)cc1Cl)N1CC[C@H](F)C1 [Example 4-18] | – |

The next lines start with the compound.

| Compound | Emax [1, 3] | EC50 [1, 4] | Emax [2, 5] | LXR alpha IP (nM) [2] | EC50 [2] | other results |
| --- | --- | --- | --- | --- | --- | --- |
| CN(C)C(=O)c1ccc(N2CCC(CC3CCN(C(=O)[C@](O)(c4cccc(OC(F)F)c4)C(F)(F)F)CC3)CC2)cc1Cl [Example 2-116, 2-chloro-4-{4-[(1-{(2R)-2-[3-(difluoro-methoxy)phenyl]-3,3,3-trifluoro-2-hydroxy-propanoyl}piperidin-4-yl)methyl]piperidin-1-yl}-N,N-dimethyl-benzamide] | 58% | 7 nM | 20% | – | 227 nM | – |
| Cc1cc(Cl)cc([C@@](O)(C(=O)N2CCC(CC3CCN(c4ccc(C(=O)N(C)C)c(Cl)c4)CC3)CC2)C(F)(F)F)c1 [Example 2-111, 2-chloro-4-[4-({1-[(2R)-2-(3-chloro-5-methylphenyl)-3,3,3-trifluoro-2-hydroxy-propanoyl]piperidin-4-yl}methyl)piperidin-1-yl]-N,N-dimethyl-benzamide] | 28% | 7 nM | 0% | NO IP | – | – |
| COc1cccc([C@@](O)(C(=O)N2CCC(C(=O)N3CCN(c4ccc(C(=O)N(C)C)c(Cl)c4)CC3)CC2)C(F)(F)F)c1 [Example 5-1, (R)-2-chloro-N,N-dimethyl-4-(4-(1-(3,3,3-trifluoro-2-hydroxy-2-(3-methoxyphenyl)propanoyl)piperidine-4-carbonyl)piperazin-1-yl)benzamide] | – | – | – | NO IP | – | EC50 [1, 6]: 12400 nM; Emax [1, 7]: 31%; Emax [2, 8]: 5% |
| COc1cccc([C@@](O)(C(=O)N2CCC(SC3CCN(c4ccc(C(=O)N(C)C)c(Cl)c4)CC3)CC2)C(F)(F)F)c1 [Example 10-1, (R)-2-chloro-N,N-dimethyl-4-(4-(1-(3,3,3-trifluoro-2-hydroxy-2-(3-methoxyphenyl)propanoyl)piperidin-4-ylthio)piperidin-1-yl)benzamide] | – | – | 8% | NO IP | – | EC50 [1, 6]: 22 nM; Emax [1, 7]: 56% |
| CN(C)C(=O)c1ccc(N2CCC(CC3CN(C(=O)[C@](O)(c4cccc(Cl)c4)C(F)(F)F)C3)CC2)nc1Cl [Example 7-41, 2-chloro-6-[4-({1-[(2R)-2-(3-chlorophenyl)-3,3,3-trifluoro-2-hydroxypropanoyl]azetidin-3-yl}methyl)piperidin-1-yl]-N,N-dimethylpyridine-3-carboxamide] | 110% | 11 nM | 35% | – | 525 nM | – |
| CCOc1cccc([C@@](O)(C(=O)N2CCC(CC3CCN(c4ccc(C(N)=O)c(Cl)c4)CC3)CC2)C(F)(F)F)c1 [Example 12-8, 2-chloro-4-[4-({1-[(2R)-2-(3-ethoxyphenyl)-3,3,3-trifluoro-2-hydroxypropanoyl]-piperidin-4-yl}methyl)-piperidin-1-yl]-benzamide] | – | – | – | – | – | EC50 [1, 9]: 4 nM; Emax [1, 10]: 46%; LXR alpha IP (Inflection Point, potency) [2]: NO IP; Emax [2, 11]: 12% |
| Cc1cc(N2CCC(CC3CCN(C(=O)C(O)(c4cccc(Cl)c4)C(F)(F)F)CC3)CC2)ncc1C(=O)N(C)C (stereo not drawn) [Example 7-4, 6-[4-({1-[2-(3-chlorophenyl)-3,3,3-trifluoro-2-hydroxypropanoyl]piperidin-4-yl}methyl)piperidin-1-yl]-N,N,4-trimethylpyridine-3-carboxamide] | – | 52 nM | – | – | 1330 nM | Emax [1, 7]: 63%; Emax [2, 8]: 19% |
| CNC(=O)c1ccc(N2CCC(OC3CCN(C(=O)C4(c5ccccc5F)CCCC4)CC3)CC2)cc1Cl [Example 7-27, 2-chloro-4-{4-[(1-{[1-(2-fluorophenyl)cyclopentyl]carbonyl}piperidin-4-yl)oxy]piperidin-1-yl}-N-methylbenzamide] | 113% | 446 nM | 27% | – | 4390 nM | – |
| CC(C)Oc1cccc([C@@](O)(C(=O)N2CC(CC3CCN(c4ccc(C(=O)N(C)C)c(Cl)c4)CC3)C2)C(F)(F)F)c1 [Example 2-60, 2-chloro-N,N-dimethyl-4-{4-[(1-{(2R)-3,3,3-trifluoro-2-hydroxy-2-[3-(1-methyl-ethoxy)phenyl]propanoyl}azetidin-3-yl)methyl]piperidin-1-yl}benzamide] | 66% | 26 nM | 2% | NO IP | – | – |
| COc1cccc(CS(=O)(=O)N2CC(CC3CCN(c4ccc(C(=O)N(C)C)c(Cl)n4)CC3)C2)c1 [Example 14-3, 2-chloro-6-[4({1-[(3-methoxybenzyl)-sulfonyl]azetidin-3-yl}methyl)piperidin-1-yl]-N,N-dimethyl-pyridine-3-carboxamide] | – | – | – | – | – | EC50 [1, 9]: 1510 nM; Emax [1, 10]: 48%; LXR alpha IP (Inflection Point, potency) [2]: NO IP; Emax [2, 11]: 5% |
| CN(C)C(=O)c1ccc(N2CCC(CC3(C)CCN(C(=O)[C@](O)(c4cccc(F)c4)C(F)(F)F)CC3)CC2)cc1Cl [Example 2-57, 2-chloro-N,N-dimethyl-4-[4-({4-methyl-1-[(2R)-3,3,3-trifluoro-2-(3-fluorophenyl)-2-hydroxy-propanoyl]piperidin-4-yl}methyl)piperidin-1-yl]benzamide] | 67% | 5 nM | 27% | – | 37 nM | – |
| CCOc1cccc([C@@](O)(C(=O)N2CCC(CC3(C)CCN(c4ccc(C(=O)N(C)C)c(OC)n4)CC3)CC2)C(F)(F)F)c1 [Example 7-24] | 106% | 92 nM | 7% | NO IP | – | – |
| CN(C)C(=O)c1ccc(N2CCC(CC3CCN(C(=O)C(O)(c4ccccc4)c4ccsc4)CC3)CC2)nc1Cl (stereo not drawn) [Example 7-96, 2-chloro-6-[4-({1-[hydroxy(phenyl)thiophen-3-ylacetyl]piperidin-4-yl}methyl)piperidin-1-yl]-N,N-dimethylpyridine-3-carboxamide] | – | – | – | NO IP | – | EC50 [1, 6]: 89 nM; Emax [1, 7]: 23%; Emax [2, 8]: 5% |
